Source: patent US5001158A, “Nitrosoureas compounds preparation thereof and utilization thereof in anticancerous” (Centre National de la Recherche Scientifique, priority 1990, dated 1991)

Assays:
[1] = Plasma concentrations of A1 and A2 after oral administration, rabbits; assay type: in vivo; conditions: rabbit, n = 5; for concentration at 1.5 h: 1 H 30 MIN; for concentration: 3 H; for concentration at 4.5 h: 4 H 30 MIN; for concentration at 0.25 h: 15 MIN; for concentration at 0.5 h: 30 MIN; for concentration at 0.75 h: 45 MIN
Description: (§1) The plasma absorption and clearance kinetics of the products A1 and A2 according to the invention were studied on different animal species after oral administration. A mixture A1 A2 in the proportions 70%/30% was used so as to be able to make a comparison with CNCC. The mixture A1 A2 and the CNCC were administered at equivalent doses and the plasma concentrations of A1 and A2 were measured as a function of time. cl (a) Experimental protocol
(§2) A solution of the mixture A1 A2 in distilled water is administered by stomach tube at a dose of 574 mg/m^2. A suspension of CNCC in olive oil is administered at a dose of 500 mg/m^2, also by stomach tube.
(§3) The blood, taken by cardiac puncture, is centrifuged rapidly at 4° C. The plasma (1 ml) is deposited on a cartridge of Extrelut® and extraction is carried out with 6 ml of methylene chloride. After evaporation, the dry extract is taken up in 150 μl of methylene chloride for chromatographic analysis.
(§4) Analysis of the plasma extracts for measuring the concentrations of A1 and A2 was performed by high performance liquid chromatography using the following technology:
(§5) Detector: Pye Unicam spectrophotometer (Philips)λ250 nm.
(§6) Elution carried out by means of a linear gradient ranging from methylene chloride 99.6%/ethanol 0.4% to methylene chloride 95%/ethanol 5% in 15 minutes

[2] = Plasma concentrations of A1 and A2 after oral administration, mice; assay type: in vivo; conditions: mouse, n = 10; for concentration at 1.5 h: 1 H 30 MIN; for concentration: 3 H; for concentration at 4.5 h: 4 H 30 MIN; for concentration at 0.25 h: 15 MIN; for concentration at 0.5 h: 30 MIN; for concentration at 0.75 h: 45 MIN
Description: as §1, §2, §3, §4, §5, §6

[3] = tested on: leukemia L 1210; assay: Antitumoral activity of A1 and A2 on leukemia L 1210 grafted i.p. in mice (ICIG); assay type: in vivo, mice (B6 D2 F1 OLA); conditions: for antitumoral activity (in words): isomers separately
Description: This activity was also studied on mice carrying leukemia L 1210 grafted i.p. This experimental tumor is the one most frequently used in the primary screening of cytostatic drugs.
These tests were conducted in parallel in two laboratories: at Unit 71 of the Institut National de la Sante et de la Recberche Mediecale (INSERM), ClermontFerrand, and at the Institut de Cancerologie et d' Immunogenetique (ICIG), Villejuif.
On day D:0, three-month-old male B6 D2 F1 mice received 10^5 cells of the leukemia strain L 1210 by intraperitoneal administration. The animals are divided up into groups of 8 to 10 animals for the control groups and 6 to 8 animals for the treated groups. On days D:1, D:5 and D:9, the animals receive the treatment at different doses by intraperitoneal or intravenous administration. The CNCC is administered as a suspension in olive oil. The products according to the invention are administered in physiological serum. The mortality is recorded every day. The survival median was determined for the treated animals and the control animals. The results are considered to be positive if the index I= [formula] is greater than 125.
The value .infin. means that 50% to 100% of the animals have survived to day D:90.
The cytostatic activity oi A1 and A2 on leukemia L 1210 was evaluated on B6 D2 F1 OLA mice at ICIG.
ICIG also studied the antitumoral activity of each isomer A1 and A2, separately administered intravenously, on leukemia L 1210. […] Comparison of the active doses with those of CNCC is impossible because of the insolubility of CNCC, as mentioned previously.

[4] = Plasma concentrations of A1 and A2 after oral administration, rats; assay type: in vivo; conditions: rat, n = 5; for concentration at 1.5 h: 1 H 30 MIN; for concentration: 3 H; for concentration at 4.5 h: 4 H 30 MIN; for concentration at 0.25 h: 15 MIN; for concentration at 0.5 h: 30 MIN; for concentration at 0.75 h: 45 MIN
Description: as §1, §2, §3, §4, §5, §6

[5] = Pharmacokinetic comparison of mixture A1 A2 with CNCC, all animal species; assay type: in vivo, mice, rats and rabbits; conditions: p.o.; for plasma concentrations after A1 A2 compared with after CNCC (in words): equivalent doses, whatever the animal species
Description: as §1, §2, §3, §4
The plasma concentrations of A1 and A2 after oral administration of either the mixture A1 A2 or CNCC to mice, rats and rabbits are reported in Table V.

[6] = after mixture A1 A2 574 mg/m^2 p.o.

## C[S+]([O-])CCN(N=O)C(=O)NCCCl (centres unmarked) [Compound A1]
[1]; after CNCC 500 mg/m^2 p.o.
  concentration at 1.5 h: 8.6 µM
  concentration at 2 h: 7.4 µM
  concentration: 4.7 µM
  concentration at 4.5 h: 2.8 µM
  concentration at 5 min: 5 µM
  concentration at 0.25 h: 9.4 µM
  concentration at 0.5 h: 10.6 µM
  concentration at 0.75 h: 10 µM
[1]; [6]
  concentration at 1.5 h: 27 µM
  concentration at 1 h: 39.4 µM
  concentration at 2 h: 19.4 µM
  concentration: 10.6 µM
  concentration at 4.5 h: 3.8 µM
  concentration at 5 min: 26.7 µM
  concentration at 0.25 h: 28.5 µM
  concentration at 0.5 h: 41 µM
  concentration at 0.75 h: 39.2 µM
[2]; after CNCC 500 mg/m^2 p.o.
  concentration at 1.5 h: 26.2 µM
  concentration at 1 h: 37.1 µM
  concentration at 2 h: 20.2 µM
  concentration: 11 µM
  concentration at 4.5 h: 6.5 µM
  concentration at 5 min: 13.7 µM
  concentration at 0.25 h: 34.2 µM
  concentration at 0.5 h: 71.4 µM
  concentration at 0.75 h: 32.8 µM
[2]; [6]
  concentration at 1.5 h: 35.4 µM
  concentration at 1 h: 88 µM
  concentration at 2 h: 23.3 µM
  concentration: 10.1 µM
  concentration at 4.5 h: 4.3 µM
  concentration at 5 min: 208 µM
  concentration at 0.25 h: 206 µM
  concentration at 0.5 h: 177 µM
  concentration at 0.75 h: 124 µM
[3]; 60 mg/kg i.v.
  T/C × 100 (cell: toxic): toxic
[3]; i.v.
  antitumoral activity (in words): low activity
[4]; after CNCC 500 mg/m^2 p.o.
  concentration at 1.5 h: 20.3 µM
  concentration at 1 h: 18.4 µM
  concentration at 2 h: 12.7 µM
  concentration: 11.1 µM
  concentration at 4.5 h: 3.9 µM
  concentration at 5 min: 2.8 µM
  concentration at 0.25 h: 8 µM
  concentration at 0.5 h: 12 µM
  concentration at 0.75 h: 14.8 µM
[4]; [6]
  concentration at 1.5 h: 29.2 µM
  concentration at 1 h: 32.9 µM
  concentration at 2 h: 15.7 µM
  concentration: 7.3 µM
  concentration at 5 min: 22.3 µM
  concentration at 0.25 h: 42.4 µM
  concentration at 0.5 h: 52.9 µM
  concentration at 0.75 h: 33.9 µM
[5]
  bioavailability compared with CNCC (in words): greater than that of CNCC
  plasma concentrations after A1 A2 compared with after CNCC (in words): much higher

## C[S+]([O-])CCNC(=O)N(CCCl)N=O (centres unmarked) [Compound A2]
[1]; after CNCC 500 mg/m^2 p.o.
  concentration at 1.5 h: 4.2 µM
  concentration at 2 h: 3.5 µM
  concentration: 2 µM
  concentration at 4.5 h: 1 µM
  concentration at 5 min: 1.8 µM
  concentration at 0.25 h: 5 µM
  concentration at 0.5 h: 6 µM
  concentration at 0.75 h: 5.5 µM
[1]; [6]
  concentration at 1.5 h: 9.2 µM
  concentration at 1 h: 14.2 µM
  concentration at 2 h: 6.3 µM
  concentration: 2.9 µM
  concentration at 4.5 h: 0.7 µM
  concentration at 5 min: 11 µM
  concentration at 0.25 h: 11.7 µM
  concentration at 0.5 h: 16.5 µM
  concentration at 0.75 h: 15 µM
[2]; after CNCC 500 mg/m^2 p.o.
  concentration at 1.5 h: 12.7 µM
  concentration at 1 h: 19 µM
  concentration at 2 h: 9.9 µM
  concentration: 6.7 µM
  concentration at 4.5 h: 3.5 µM
  concentration at 5 min: 5.3 µM
  concentration at 0.25 h: 13.2 µM
  concentration at 0.5 h: 35.7 µM
  concentration at 0.75 h: 16.5 µM
[2]; [6]
  concentration at 1.5 h: 10.8 µM
  concentration at 1 h: 29.9 µM
  concentration at 2 h: 6.3 µM
  concentration: 2.9 µM
  concentration at 4.5 h: 0.9 µM
  concentration at 5 min: 83 µM
  concentration at 0.25 h: 81.5 µM
  concentration at 0.5 h: 66.3 µM
  concentration at 0.75 h: 43.7 µM
[3]; 5 mg/kg i.v.
  T/C × 100: .infin. (50% to 100% of the animals have survived to day D:90)
[3]; 10 mg/kg i.v.
  T/C × 100: .infin. (50% to 100% of the animals have survived to day D:90)
[3]; i.v.
  interval between doses for maximum efficacy (IDME): presence of an IDME
  percentage of mice surviving to day D:100 (in words): high percentage
  antitumoral activity (in words): high activity
[4]; after CNCC 500 mg/m^2 p.o.
  concentration at 1.5 h: 11.4 µM
  concentration at 1 h: 8.1 µM
  concentration at 2 h: 6.4 µM
  concentration: 6.5 µM
  concentration at 4.5 h: 2.2 µM
  concentration at 5 min: 0.9 µM
  concentration at 0.25 h: 3.2 µM
  concentration at 0.5 h: 5.4 µM
  concentration at 0.75 h: 7.2 µM
[4]; [6]
  concentration at 1.5 h: 12.9 µM
  concentration at 1 h: 14.2 µM
  concentration at 2 h: 7.8 µM
  concentration: 2.9 µM
  concentration at 5 min: 8.5 µM
  concentration at 0.25 h: 17.7 µM
  concentration at 0.5 h: 22.5 µM
  concentration at 0.75 h: 11.4 µM
[5]
  bioavailability compared with CNCC (in words): greater than that of CNCC
  plasma concentrations after A1 A2 compared with after CNCC (in words): much higher
[5]; preliminary data
  plasma concentration after A1 A2 compared with after CNCC (in words): considerably greater
